Reference: ChEMBL document CHEMBL1139006, “Synthesis and in vitro antibiotic activity of 16-membered 9-O-arylalkyloxime macrolides” (2006)
Values after ≈ are worked out from the molar mass of the structure shown.

Assays:
Format in all cases: functional
Streptococcus pneumoniae [1] = assay: Antibacterial activity against Streptococcus pneumoniae ATCC 6301
Streptococcus pneumoniae [2] = assay: Antibacterial activity against Streptococcus pneumoniae ATCC 700671
Streptococcus pneumoniae [3] = assay: Antibacterial activity against macrolide resistant Streptococcus pneumoniae ATCC 700676
Streptococcus pneumoniae [4] = assay: Antibacterial activity against macrolide resistant Streptococcus pneumoniae ATCC 700677
Streptococcus pneumoniae [5] = assay: Antibacterial activity against macrolide resistant Streptococcus pneumoniae ATCC 700905
Streptococcus pneumoniae [6] = assay: Antibacterial activity against macrolide resistant Streptococcus pneumoniae ATCC 700906
Streptococcus pneumoniae [7] = assay: Antibacterial activity against Streptococcus pneumoniae ATCC 49619
Staphylococcus aureus [8] = assay: Antibacterial activity against Staphylococcus aureus ATCC 6538p
Staphylococcus aureus [9] = assay: Antibacterial activity against macrolide resistant Staphylococcus aureus ATCC 33591
Staphylococcus aureus [10] = assay: Antibacterial activity against macrolide resistant Staphylococcus aureus ATCC 141541
Staphylococcus aureus [11] = assay: Antibacterial activity against macrolide resistant Staphylococcus aureus ATCC BAA-39
Staphylococcus aureus [12] = assay: Antibacterial activity against macrolide resistant Staphylococcus aureus ATCC BAA-44
Staphylococcus aureus [13] = assay: Antibacterial activity against Staphylococcus aureus ATCC 29213
[14] = system: Staphylococcus epidermidis; assay: Antibacterial activity against Staphylococcus epidermidis ATCC 12228
Enterococcus faecalis = assay: Antibacterial activity against Enterococcus faecalis ATCC 51575

SMILES | MIC (Streptococcus pneumoniae [1]) | MIC (Streptococcus pneumoniae [2]) | MIC (Streptococcus pneumoniae [3]) | MIC (Streptococcus pneumoniae [4]) | MIC (Streptococcus pneumoniae [5]) | MIC (Streptococcus pneumoniae [6]) | MIC (Streptococcus pneumoniae [7]) | MIC (Staphylococcus aureus [8]) | MIC (Staphylococcus aureus [9]) | MIC (Staphylococcus aureus [10]) | MIC (Staphylococcus aureus [11]) | MIC (Staphylococcus aureus [12]) | MIC (Staphylococcus aureus [13]) | MIC [14] | MIC (Enterococcus faecalis)
CC[C@H]1OC(=O)C[C@@H](O)[C@H](C)[C@@H](O[C@@H]2O[C@H](C)[C@@H](O)[C@H](N(C)C)[C@H]2O)[C@@H](CC=O)C[C@@H](C)C(=N/OCc2ccccc2)/C=C/C(C)=C/C1CO (stereo not given in full) | 0.025 µg/mL (≈ 0.0356 µM) | 0.2 µg/mL (≈ 0.285 µM) | 0.025 µg/mL (≈ 0.0356 µM) | 1.56 µg/mL (≈ 2.22 µM) | 0.2 µg/mL (≈ 0.285 µM) | > 12.5 µg/mL | 0.2 µg/mL (≈ 0.285 µM) | 0.39 µg/mL (≈ 0.555 µM) | > 12.5 µg/mL | 1.56 µg/mL (≈ 2.22 µM) | > 12.5 µg/mL | > 12.5 µg/mL | 1.56 µg/mL (≈ 2.22 µM) | 0.78 µg/mL (≈ 1.11 µM) | > 12.5 µg/mL
CC[C@H]1OC(=O)C[C@@H](O)[C@H](C)[C@@H](O[C@@H]2O[C@H](C)[C@@H](O)[C@H](N(C)C)[C@H]2O)[C@@H](CC=O)C[C@@H](C)C(=N/OC/C=C\c2cnc3ccccc3c2)/C=C/C(C)=C/C1CO (stereo not given in full) | 0.025 µg/mL (≈ 0.0321 µM) | 0.025 µg/mL (≈ 0.0321 µM) | 0.049 µg/mL (≈ 0.0628 µM) | > 12.5 µg/mL | 0.049 µg/mL (≈ 0.0628 µM) | > 12.5 µg/mL | 0.025 µg/mL (≈ 0.0321 µM) | 0.2 µg/mL (≈ 0.256 µM) | > 12.5 µg/mL | 0.78 µg/mL (≈ 1 µM) | > 12.5 µg/mL | > 12.5 µg/mL | 0.78 µg/mL (≈ 1 µM) | 0.39 µg/mL (≈ 0.5 µM) | > 12.5 µg/mL
CC[C@H]1OC(=O)C[C@@H](O)[C@H](C)[C@@H](O[C@@H]2O[C@H](C)[C@@H](O)[C@H](N(C)C)[C@H]2O)[C@@H](CC=O)C[C@@H](C)C(=N/OCC(=O)N2CCN(c3ccccc3)CC2)/C=C/C(C)=C/C1CO (stereo not given in full) | 0.025 µg/mL (≈ 0.0307 µM) | 0.025 µg/mL (≈ 0.0307 µM) | 0.39 µg/mL (≈ 0.479 µM) | 6.25 µg/mL (≈ 7.67 µM) | 0.2 µg/mL (≈ 0.245 µM) | > 12.5 µg/mL | 0.01 µg/mL (≈ 0.0123 µM) | 0.78 µg/mL (≈ 0.957 µM) | > 12.5 µg/mL | 1.56 µg/mL (≈ 1.91 µM) | > 12.5 µg/mL | > 12.5 µg/mL | 1.56 µg/mL (≈ 1.91 µM) | 0.2 µg/mL (≈ 0.245 µM) | > 12.5 µg/mL
CC[C@H]1OC(=O)C[C@@H](O)[C@H](C)[C@@H](O[C@@H]2O[C@H](C)[C@@H](O)[C@H](N(C)C)[C@H]2O)[C@@H](CC=O)C[C@@H](C)C(=N\OCC#Cc2cnc3ccccc3c2)/C=C/C(C)=C/C1CO (stereo not given in full) | 0.025 µg/mL (≈ 0.0321 µM) | 0.049 µg/mL (≈ 0.063 µM) | 0.049 µg/mL (≈ 0.063 µM) | > 12.5 µg/mL | 0.049 µg/mL (≈ 0.063 µM) | > 12.5 µg/mL | 0.049 µg/mL (≈ 0.063 µM) | 0.098 µg/mL (≈ 0.126 µM) | > 12.5 µg/mL | 0.78 µg/mL (≈ 1 µM) | > 12.5 µg/mL | > 12.5 µg/mL | 0.39 µg/mL (≈ 0.501 µM) | 0.2 µg/mL (≈ 0.257 µM) | > 12.5 µg/mL
CC[C@H]1OC(=O)C[C@@H](O)[C@H](C)[C@@H](O[C@@H]2O[C@H](C)[C@@H](O)[C@H](N(C)C)[C@H]2O)[C@@H](CC=O)C[C@@H](C)C(=N/OC/C=C\c2ccc3nccnc3c2)/C=C/C(C)=C/C1CO (stereo not given in full) | 0.025 µg/mL (≈ 0.032 µM) | 0.049 µg/mL (≈ 0.0627 µM) | 0.049 µg/mL (≈ 0.0627 µM) | > 12.5 µg/mL | 0.049 µg/mL (≈ 0.0627 µM) | > 12.5 µg/mL | 0.025 µg/mL (≈ 0.032 µM) | 0.2 µg/mL (≈ 0.256 µM) | > 12.5 µg/mL | 0.39 µg/mL (≈ 0.499 µM) | > 12.5 µg/mL | > 12.5 µg/mL | 0.39 µg/mL (≈ 0.499 µM) | 0.2 µg/mL (≈ 0.256 µM) | > 12.5 µg/mL
CC[C@H]1OC(=O)C[C@@H](O)[C@H](C)[C@@H](O[C@@H]2O[C@H](C)[C@@H](O)[C@H](N(C)C)[C@H]2O)[C@@H](CC=O)C[C@@H](C)C(=N\OC/C=C/c2cnc3ccccc3c2)/C=C/C(C)=C/C1CO (stereo not given in full) | 0.025 µg/mL (≈ 0.0321 µM) | 0.049 µg/mL (≈ 0.0628 µM) | 0.049 µg/mL (≈ 0.0628 µM) | > 12.5 µg/mL | 0.049 µg/mL (≈ 0.0628 µM) | > 12.5 µg/mL | 0.025 µg/mL (≈ 0.0321 µM) | 0.098 µg/mL (≈ 0.126 µM) | > 12.5 µg/mL | 0.39 µg/mL (≈ 0.5 µM) | > 12.5 µg/mL | > 12.5 µg/mL | 0.39 µg/mL (≈ 0.5 µM) | 0.049 µg/mL (≈ 0.0628 µM) | > 12.5 µg/mL
CC[C@H]1OC(=O)C[C@@H](O)[C@H](C)[C@@H](O[C@@H]2O[C@H](C)[C@@H](O)[C@H](N(C)C)[C@H]2O)[C@@H](CC=O)C[C@@H](C)C(=N/OCC#Cc2cnc3ccccc3c2)/C=C/C(C)=C/C1CO (stereo not given in full) | 0.025 µg/mL (≈ 0.0321 µM) | 0.025 µg/mL (≈ 0.0321 µM) | 0.025 µg/mL (≈ 0.0321 µM) | > 12.5 µg/mL | 0.049 µg/mL (≈ 0.063 µM) | > 12.5 µg/mL | 0.025 µg/mL (≈ 0.0321 µM) | 0.098 µg/mL (≈ 0.126 µM) | > 12.5 µg/mL | 0.39 µg/mL (≈ 0.501 µM) | > 12.5 µg/mL | > 12.5 µg/mL | 0.39 µg/mL (≈ 0.501 µM) | 0.098 µg/mL (≈ 0.126 µM) | > 12.5 µg/mL
